According to PMC8910432 (International Journal of Molecular Sciences, 2022):

Columns and labels:
[1] = biological target: RBD (N501Y) spike protein and human ACE2 (Severe acute respiratory syndrome coronavirus 2, UniProt P0DTC2, N501Y); assay type: binding, SARS-CoV-2; human; details: for inhibitory effect on interaction between RBD (N501Y) spike protein and human ACE2: 10 µM
RBD (N501Y) = RBD (N501Y) (Severe acute respiratory syndrome coronavirus 2, UniProt P0DTC2, N501Y); assay type: binding, SARS-CoV-2

Molecule	concentration from which inhibition is significant [1] [µM]	inhibitory effect on interaction between RBD (N501Y) spike protein and human ACE2 [1]	TA adsorption onto RBD (QCMD) (RBD (N501Y))	reduction of the binding between RBD (N501Y) spike protein and ACE2 [1]
O=C(O[C@@H]1O[C@@H]2COC(=O)c3cc(O)c(O)c(O)c3-c3c(cc(O)c(O)c3O)C(=O)O[C@H]([C@H]1O)[C@@H]2O)c1cc(O)c(O)c(O)c1 [corilagin, β-1-O-galloyl-3,6-(R)-hexahydroxydiphenoyl-D-glucose]	≥ 0.1	up to 50%	–	–
COc1cc(-c2[o+]c3cc(O)cc(O)c3cc2O[C@@H]2O[C@H](CO)[C@@H](O)[C@H](O)[C@H]2O)cc(OC)c1O [malvidin-3-O-glucoside]	–	only TA, TGG, and corilagin show a significant inhibitory effect	–	–
OC[C@H]1O[C@@H](Oc2cc3c(O)cc(O)cc3[o+]c2-c2ccc(O)cc2)[C@H](O)[C@@H](O)[C@@H]1O [pelargonidin-3-O-glucoside]	–	only TA, TGG, and corilagin show a significant inhibitory effect	–	–
O=C(OC[C@H]1O[C@@H](OC(=O)c2cc(O)c(O)c(O)c2)[C@H](O)[C@@H](OC(=O)c2cc(O)c(O)c(O)c2)[C@@H]1O)c1cc(O)c(O)c(O)c1 [TGG, 1,3,6-tri-O-galloyl-β-D-glucose]	≥ 0.1	up to 50%	–	–
O=C(OC[C@H]1OC(OC(=O)c2cc(O)c(O)c(OC(=O)c3cc(O)c(O)c(O)c3)c2)[C@H](OC(=O)c2cc(O)c(O)c(OC(=O)c3cc(O)c(O)c(O)c3)c2)[C@@H](OC(=O)c2cc(O)c(O)c(OC(=O)c3cc(O)c(O)c(O)c3)c2)[C@@H]1OC(=O)c1cc(O)c(O)c(OC(=O)c2cc(O)c(O)c(O)c2)c1)c1cc(O)c(O)c(OC(=O)c2cc(O)c(O)c(O)c2)c1 (stereo partly drawn) [TA, 1,2,3,4,6-penta-O-{3,4-dihydroxy-5-((3,4,5-trihydroxybenzoyl)oxy)benzoyl}-D-glucopyranose]	≥ 0.1	up to 50%	amount of TA adsorbed increases with TA concentration	up to 95%
cyanidin-3-O-glucoside	–	only TA, TGG, and corilagin show a significant inhibitory effect	–	–
